Experiment: recombinant barcode read abundance after kanamycin selection (control-corrected) (log10(CPM+1)); higher = more efficient recombination; sequences stand for … in AGTGCAGAGAAAATCGGCCAGTTTTCTCTGCCTGCAGTCCGCATGCCGT…AGATTTATGCAGCGGACTGCCTTTCTCCCAAAGTGATAAACCGGACAGTATCATGGACCGGTTTTCCCGGTAATCCGTATTTGCAAGGTTGGTTTCACT; site = the 11-nt target
In short: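 In E. coli, a pooled library matched targets to IS621 bridge RNA target-binding loops and was introduced alongside a donor plasmid. Cells went onto chloramphenicol/ampicillin/kanamycin with 0.1 mM IPTG or onto chloramphenicol/ampicillin LB agar as control, in duplicate. Recombination efficiency, from recombinant-junction barcodes as counts per million, is averaged and control-corrected. It is reported as log10(CPM+1).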
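Also: IS621 recombinase and bridge RNA in Escherichia coli cells.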

| Sequence | recombinant barcode read abundance (log10) |
| --- | --- |
| TCTTGTCCTTGGGTTCTAACCTGTTGCGA (site TCTTGTCCTGC) | 0.343 |
| TCTTGTCCTTGGGTTCTAACCTGTTGCGA (site TCTTGTCCTTC) | 0.253 |
| TCTTGTCCTTGGGTTCTAACCTGTTGCGC (site TCTTGTCCTAC) | 0.0303 |
| TCTTGTCCTTGGGTTCTAACCTGTTGCGC (site TCTTGTCCTCC) | 0.093 |
| TCTTGTCCTTGGGTTCTAACCTGTTGCGC (site TCTTGTCCTGC) | 0.385 |
| TCTTGTCCTTGGGTTCTAACCTGTTGCGC (site TCTTGTCCTTC) | 0.0581 |
| TCTTGTCCTTGGGTTCTAACCTGTTGCGT (site TCTTGTCCTAC) | 0.682 |
| TCTTGTCCTTGGGTTCTAACCTGTTGCGT (site TCTTGTCCTCC) | 0.0386 |
| TCTTGTCCTTGGGTTCTAACCTGTTGCGT (site TCTTGTCCTGC) | 0.172 |
| TCTTGTCCTTGGGTTCTAACCTGTTGCGT (site TCTTGTCCTTC) | 0.0168 |
| TGAAACGCTTGGGTTCTAACCTGTTGCTT (site TGAAACGCTAA) | 1.2 |
| TGAAACGCTTGGGTTCTAACCTGTTGCTT (site TGAAGCCCTAA) | 0.0163 |
| TGAAAGCCTTGGGTTCTAACCTGTTGCTT (site TGAAAGCCTAA) | 0.215 |
| TGAAAGCCTTGGGTTCTAACCTGTTGCTT (site TGGAAGTCTAA) | 0.0888 |
| TGAAGCCCTTGGGTTCTAACCTGTTGCTT (site TGAAACGCTAA) | 0.179 |
| TGAAGCCCTTGGGTTCTAACCTGTTGCTT (site TGAAGCCCTAA) | 0.321 |
| TGAAGTACTTGGGTTCTAACCTGTTGCCT (site TGAAATACTAG) | 0.35 |
| TGAAGTACTTGGGTTCTAACCTGTTGCCT (site TGAACTACTAG) | 0.169 |
| TGAAGTACTTGGGTTCTAACCTGTTGCCT (site TGAAGTACTAG) | 0.257 |
| TGAAGTACTTGGGTTCTAACCTGTTGCCT (site TGAATTACTAG) | 0 |
| TGAATGACTTGGGTTCTAACCTGTTGCCT (site TGAATGACTAG) | 0.544 |
| TGAATGACTTGGGTTCTAACCTGTTGCCT (site TGGATGCCTAG) | 0.0355 |
| TGAATGTCTTGGGTTCTAACCTGTTGCCT (site TGAAAGTCTAG) | 0.0491 |
| TGAATGTCTTGGGTTCTAACCTGTTGCCT (site TGAACGTCTAG) | 0.0549 |
| TGAATGTCTTGGGTTCTAACCTGTTGCCT (site TGAAGGTCTAG) | 0.0166 |
| TGAATGTCTTGGGTTCTAACCTGTTGCCT (site TGAATGTCTAG) | 1.23 |

| Sequence | recombinant barcode read abundance (log10) |
| --- | --- |
| TGACACACTTGGGTTCTAACCTGTTGCTG (site TGACACACTCA) | 2.22 |
| TGACACACTTGGGTTCTAACCTGTTGCTG (site TGAGACACTCA) | 0.127 |
| TGACAGTCTTGGGTTCTAACCTGTTGCAG (site CACTTAACTTG) | 0.0862 |
| TGACAGTCTTGGGTTCTAACCTGTTGCAG (site TGACAGTCTCT) | 1.42 |
| TGACATGCTTGGGTTCTAACCTGTTGCCT (site TGAAATGCTAG) | 0.108 |
| TGACATGCTTGGGTTCTAACCTGTTGCCT (site TGACATGCTAG) | 1.37 |
| TGACATGCTTGGGTTCTAACCTGTTGCCT (site TGAGATGCTAG) | 0.0442 |
| TGACATGCTTGGGTTCTAACCTGTTGCCT (site TGATATGCTAG) | 0.172 |
| TGACCCTCTTGGGTTCTAACCTGTTGCCT (site AGACCCTCTAG) | 0.703 |
| TGACCCTCTTGGGTTCTAACCTGTTGCCT (site CGACCCTCTAG) | 0.465 |
| TGACCCTCTTGGGTTCTAACCTGTTGCCT (site GGACCCTCTAG) | 0.0227 |
| TGACCCTCTTGGGTTCTAACCTGTTGCCT (site TGACCCTCTAG) | 2.39 |
| TGACGTCCTTGGGTTCTAACCTGTTGCAT (site TGACGTCCTAA) | 0.0504 |
| TGACGTCCTTGGGTTCTAACCTGTTGCAT (site TGACGTCCTAC) | 0.0943 |
| TGACGTCCTTGGGTTCTAACCTGTTGCAT (site TGACGTCCTAG) | 0.0926 |
| TGACGTCCTTGGGTTCTAACCTGTTGCAT (site TGACGTCCTAT) | 0.695 |
| TGACGTCCTTGGGTTCTAACCTGTTGCTT (site TGACGTCCTAA) | 0.293 |
| TGACGTCCTTGGGTTCTAACCTGTTGCTT (site TGACGTCCTAC) | 0.033 |
| TGACGTCCTTGGGTTCTAACCTGTTGCTT (site TGACGTCCTAG) | 0.122 |
| TGACGTCCTTGGGTTCTAACCTGTTGCTT (site TGACGTCCTAT) | 0.251 |
| TGAGATGCTTGGGTTCTAACCTGTTGCCT (site TGAAATGCTAG) | 0.199 |
| TGAGATGCTTGGGTTCTAACCTGTTGCCT (site TGACATGCTAG) | 0.026 |
| TGAGATGCTTGGGTTCTAACCTGTTGCCT (site TGAGATGCTAG) | 1.72 |
| TGAGATGCTTGGGTTCTAACCTGTTGCCT (site TGATATGCTAG) | 0.124 |
| TGAGATTCTTGGGTTCTAACCTGTTGCAT (site TGAGATTCTAT) | 1.55 |
| TGAGATTCTTGGGTTCTAACCTGTTGCAT (site TGTGATCCTAT) | 0.0159 |

| Sequence | recombinant barcode read abundance (log10) |
| --- | --- |
| TGAGCGGCTTGGGTTCTAACCTGTTGCCT (site TGAGAGGCTAG) | 0.143 |
| TGAGCGGCTTGGGTTCTAACCTGTTGCCT (site TGAGCGGCTAG) | 0.438 |
| TGAGCGGCTTGGGTTCTAACCTGTTGCCT (site TGAGGGGCTAG) | 0.00469 |
| TGAGCGGCTTGGGTTCTAACCTGTTGCCT (site TGAGTGGCTAG) | 0.0667 |
| TGAGTACCTTGGGTTCTAACCTGTTGCTT (site TGAGTACCTAA) | 1.39 |
| TGAGTACCTTGGGTTCTAACCTGTTGCTT (site TGAGTCCCTAA) | 0.0336 |
| TGAGTACCTTGGGTTCTAACCTGTTGCTT (site TGAGTGCCTAA) | 0.856 |
| TGAGTACCTTGGGTTCTAACCTGTTGCTT (site TGAGTTCCTAA) | 0.144 |
| TGAGTCCCTTGGGTTCTAACCTGTTGCAG (site AAGTGGTCTTA) | 0.149 |
| TGAGTCCCTTGGGTTCTAACCTGTTGCAG (site TGAGTCCCTCT) | 2.79 |
| TGAGTCCCTTGGGTTCTAACCTGTTGCTA (site TGAGTCCCTTA) | 2.27 |
| TGAGTCCCTTGGGTTCTAACCTGTTGCTA (site TGGGTCCCTAA) | 0.0131 |
| TGAGTGGCTTGGGTTCTAACCTGTTGCCT (site TGAGAGGCTAG) | 0.129 |
| TGAGTGGCTTGGGTTCTAACCTGTTGCCT (site TGAGCGGCTAG) | 0.108 |
| TGAGTGGCTTGGGTTCTAACCTGTTGCCT (site TGAGGGGCTAG) | 0.00884 |
| TGAGTGGCTTGGGTTCTAACCTGTTGCCT (site TGAGTGGCTAG) | 0.749 |
| TGATAGCCTTGGGTTCTAACCTGTTGCCT (site AGATAGCCTAG) | 0.063 |
| TGATAGCCTTGGGTTCTAACCTGTTGCCT (site CGATAGCCTAG) | 0.0141 |
| TGATAGCCTTGGGTTCTAACCTGTTGCCT (site GGATAGCCTAG) | 0.159 |
| TGATAGCCTTGGGTTCTAACCTGTTGCCT (site TGATAGCCTAG) | 0.901 |
| TGATATTCTTGGGTTCTAACCTGTTGCCT (site ACCAGCCCTCA) | 0.448 |
| TGATATTCTTGGGTTCTAACCTGTTGCCT (site TGATATTCTAG) | 0.245 |
| TGATCTCCTTGGGTTCTAACCTGTTGCAT (site TGATCTCCTAA) | 0.186 |
| TGATCTCCTTGGGTTCTAACCTGTTGCAT (site TGATCTCCTAT) | 0.28 |
| TGATCTCCTTGGGTTCTAACCTGTTGCTT (site TGATCTCCTAA) | 0.0107 |
